According to patent publication US9012412B2, “Dual SGLT1/SGLT2 inhibitors” (Janssen Pharmaceutica NV, priority 2013, dated 2015):

What was measured:
human SGLT1 = molecular target: T1, human SGLT1 (Homo sapiens, UniProt P13866); assay: Sodium-dependent 14C-methyl-α-D-glucopyranoside uptake in CHO-K1 cells stably expressing human SGLT1; type: cell-based; conditions: for IC50: 14C-methyl-α-D-glucopyranoside uptake; for inhibition at 3 µM: compound at 3 μM
T1 construct: expressed in transfected cells
T1 sequence (P13866 1-664): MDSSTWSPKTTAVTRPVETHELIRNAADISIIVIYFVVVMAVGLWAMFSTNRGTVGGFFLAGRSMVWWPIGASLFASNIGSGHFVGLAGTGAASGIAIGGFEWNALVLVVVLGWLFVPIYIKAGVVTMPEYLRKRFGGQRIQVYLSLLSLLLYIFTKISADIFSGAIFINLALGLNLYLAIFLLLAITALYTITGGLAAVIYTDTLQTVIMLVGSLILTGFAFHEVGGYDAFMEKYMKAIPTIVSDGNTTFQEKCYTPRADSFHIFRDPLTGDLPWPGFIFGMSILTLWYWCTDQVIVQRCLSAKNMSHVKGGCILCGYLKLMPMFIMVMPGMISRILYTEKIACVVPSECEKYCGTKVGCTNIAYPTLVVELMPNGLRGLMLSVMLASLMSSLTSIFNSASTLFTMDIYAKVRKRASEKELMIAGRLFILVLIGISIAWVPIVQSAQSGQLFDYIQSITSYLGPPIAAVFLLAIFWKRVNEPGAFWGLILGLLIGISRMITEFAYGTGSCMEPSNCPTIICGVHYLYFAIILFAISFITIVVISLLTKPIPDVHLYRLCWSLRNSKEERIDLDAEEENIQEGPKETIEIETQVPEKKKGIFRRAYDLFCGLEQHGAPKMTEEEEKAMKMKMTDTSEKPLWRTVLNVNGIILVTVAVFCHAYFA
Method: (§1) SGLT1 and SGLT2 were cloned in form of cDNA from human small intestine (Genbank M24847), and from human kidney (Genbank M95549), respectively. Subsequently, each full cDNA was subcloned into pcDNA with each construct's integrity verified through follow-on sequencing. To generate CHO-K1 cells that stably express human SGLT1 or human SGLT2 CHO-K1 cells were transfected using DMRIE-C reagent (Life Technologies, Gaithersburg, Md.). Transfected cells were then selected in the presence of 500 μg/ml of the antibiotic G418 (Gibco-BRL, Grand Island, N.Y.). Individual clones were then characterized using the following cell-based assay for sodium-dependent glucose transport.
(§2) First, cell lines stably expressing human SGLT1 or SGLT2 were seeded at a density of 65,000 cells per well per 200 μl cell culture medium with 10 mM of NaButyrate (Aldrich Catalog No. 30341-0) in a 96-well flat bottom plate (COSTAR, Catalog No. 3903). For human SGLT1 or SGLT2 expressing CHO-K1 cells the culture medium comprised Ham's F-12 (Invitrogen Catalog No. 31765), Fetal Bovine Serum (Invitrogen Catalog No. 16000), G418 (Geneticin, Cellgro Catalog No. 30234-CI), Phlorizidin (Sigma Catalog No. P3449), DPBS (Cellgro Catalog No. 21030-CV), ^14C-methyl-α-D-glucopyranoside (Amersham Catalog No. CFB 76), and Methyl-α-D-glucopyranoside (Sigma Catalog No. M-9376).
(§3) The cells were allowed to incubate for 24 hours. Subsequently, the medium was aspirated from the plates and the cells were washed one time with 150 μl assay buffer and incubate 15 min with another 150 μl assay buffer which comprised 50 mM HEPES pH 7.4, 20 mM Tris Base, 5 mM KCl, 1 mM MgCl2, 1 mM CaCl2, and 137 mM NaCl. After removing the wash buffer, 40 μl assay buffer and 10 μl compound solution was added to each well, which was again allowed to incubate for 10 min.
(§4) Following the 10 min incubation, 10 μl of serial diluted Methyl-α-D-glucopyranoside (Sigma Catalog No. M-9376) containing 0.07 μCi ^14C-methyl-α-D-glucopyranoside (Amersham Catalog No. CFB 76) was added to the appropriate well and allowed to incubate for another 2 hours. ^14C-methyl-α-D-glucopyranoside (Sigma Catalog No. M-9376, St. Louis, Mo.) is a non-metabolizable glucose analog specific for sodium-dependent glucose transporters as previously described by H. Peng and J. E. Lever in “Post-transcriptional regulation of Na+/glucose cotransporter (SGLT1) gene expression in LLC-PK1 cells,” J. Biol. Chem. 270, 20536-42 (1995).
(§5) Next, the plates were twice washed with 150 μl of ice-cold DPBS (Cellgro Catalog No. 21030) that was then completely removed from the plates before adding 50 μl of MicroScint™-20 (Packard Catalog No. 6013621) to each well for a 20 min or longer incubation time.
(§6) Sodium-dependent ^14C-methyl-α-D-glucopyranoside uptake was quantified by measuring radioactivity. Plates were counted in a TopCount (Packard, Meriden, Conn.). Results are reported as the %-inhibition or IC50 value from a representative experiment. Variability for the functional assay was typically within 20%.

human SGLT2 = molecular target: T2, human SGLT2 (Homo sapiens, UniProt P31639); assay: Sodium-dependent 14C-methyl-α-D-glucopyranoside uptake in CHO-K1 cells stably expressing human SGLT2; type: cell-based; conditions: for IC50: 14C-methyl-α-D-glucopyranoside uptake; for inhibition at 3 µM: compound at 3 μM; for inhibition at 0.3 µM: compound at 0.3 μM
T2 construct: expressed in transfected cells
T2 sequence (P31639 1-672): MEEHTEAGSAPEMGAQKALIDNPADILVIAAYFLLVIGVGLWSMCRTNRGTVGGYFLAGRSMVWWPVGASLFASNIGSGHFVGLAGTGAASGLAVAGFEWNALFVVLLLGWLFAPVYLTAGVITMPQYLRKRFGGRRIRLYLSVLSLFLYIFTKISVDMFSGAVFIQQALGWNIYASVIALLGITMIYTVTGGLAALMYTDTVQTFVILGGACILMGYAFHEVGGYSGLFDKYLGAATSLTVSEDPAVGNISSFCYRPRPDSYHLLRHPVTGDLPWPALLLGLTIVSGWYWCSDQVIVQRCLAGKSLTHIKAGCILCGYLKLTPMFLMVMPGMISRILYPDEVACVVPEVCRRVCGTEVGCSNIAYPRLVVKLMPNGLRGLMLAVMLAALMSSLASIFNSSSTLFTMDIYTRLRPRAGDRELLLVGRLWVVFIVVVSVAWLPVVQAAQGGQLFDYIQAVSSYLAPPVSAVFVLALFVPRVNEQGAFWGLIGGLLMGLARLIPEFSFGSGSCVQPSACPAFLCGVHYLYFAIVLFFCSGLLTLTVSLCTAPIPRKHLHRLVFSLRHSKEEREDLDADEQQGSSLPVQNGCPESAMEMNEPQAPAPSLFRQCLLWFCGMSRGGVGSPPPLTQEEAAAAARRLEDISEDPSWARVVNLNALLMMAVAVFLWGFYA
Method: as §1, §2, §3, §4, §5, §6

Compound | IC50 (human SGLT1) [nM] | IC50 (human SGLT2) [nM] | inhibition at 3 µM (human SGLT1) [%] | inhibition at 3 µM (human SGLT2) [%] | other results
COc1cc(O)c([C@@H]2O[C@H](CO)C[C@H](O)[C@H]2O)cc1Cc1cc2ccccc2s1 [Cpd 2, (2S,3R,4S,6S)-2-(5-(benzo[b]thiophen-2-ylmethyl)-2-hydroxy-4-methoxyphenyl)-6-(hydroxymethyl)tetrahydro-2H-pyran-3,4-diol] | 155 | 114 | – | – | –
COc1cc(O)c([C@@H]2O[C@H](CO)C[C@H](O)[C@H]2O)cc1C(=O)c1cc2ccccc2s1 [Cpd 5, benzo[b]thiophen-2-yl(5-((2S,3R,4S,6S)-3,4-dihydroxy-6-(hydroxymethyl)tetrahydro-2H-pyran-2-yl)-4-hydroxy-2-methoxyphenyl)methanone] | – | – | 0 | 0 | –
Cc1cc(O)c([C@@H]2O[C@H](CO)C[C@H](O)[C@H]2O)cc1C(=O)c1cc2ccccc2s1 [Cpd 6, benzo[b]thiophen-2-yl(5-((2S,3R,4S,6S)-3,4-dihydroxy-6-(hydroxymethyl)-tetrahydro-2H-pyran-2-yl)-4-hydroxy-2-methylphenyl)methanone] | – | – | 0 | 0 | –
C=C(c1cc2ccccc2s1)c1cc([C@@H]2O[C@H](CO)C[C@H](O)[C@H]2O)c(O)cc1OC [Cpd 7, (2S,3R,4S,6S)-2-(5-(1-(benzo[b]thiophen-2-yl)vinyl)-2-hydroxy-4-methoxyphenyl)-6-(hydroxymethyl)tetrahydro-2H-pyran-3,4-diol] | – | – | 43 | 6 | –
C=C(c1cc2ccccc2s1)c1cc([C@@H]2O[C@H](CO)C[C@H](O)[C@H]2O)c(O)cc1C [Cpd 8, (2S,3R,4S,6S)-2-(5-(1-(benzo[b]thiophen-2-yl)vinyl)-2-hydroxy-4-methylphenyl)-6-(hydroxymethyl)tetrahydro-2H-pyran-3,4-diol] | – | – | 41 | 25 | –
COc1cc(O)c([C@@H]2O[C@H](CO)C[C@H](O)[C@H]2O)cc1C1(c2cc3ccccc3s2)CC1 [Cpd 9, (2S,3R,4S,6S)-2-(5-(1-(benzo[b]thiophen-2-yl)cyclopropyl)-2-hydroxy-4-methoxyphenyl)-6-(hydroxymethyl)tetrahydro-2H-pyran-3,4-diol] | – | – | 49 | 57 | –
Cc1cc(O)c([C@@H]2O[C@H](CO)C[C@H](O)[C@H]2O)cc1C1(c2cc3ccccc3s2)CC1 [Cpd 10, (2S,3R,4S,6S)-2-(5-(1-(benzo[b]thiophen-2-yl)cyclopropyl)-2-hydroxy-4-methylphenyl)-6-(hydroxymethyl)tetrahydro-2H-pyran-3,4-diol] | > 3000 | 223 | – | – | –
OC[C@@H]1C[C@H](O)[C@@H](O)[C@H](c2cc(Cc3cc4ccccc4s3)c(C3CC3)cc2O)O1 [Cpd 12, (2S,3R,4S,6S)-2-(5-(benzo[b]thiophen-2-ylmethyl)-4-cyclopropyl-2-hydroxyphenyl)-6-(hydroxymethyl)tetrahydro-2H-pyran-3,4-diol] | 99 | 683 | – | – | –
COc1cc(O)c([C@@H]2O[C@H](CO)C[C@H](O)[C@H]2O)cc1C(C)(C)c1cc2ccccc2s1 [Cpd 14, (2S,3R,4S,6S)-2-(5-(2-(benzo[b]thiophen-2-yl)propan-2-yl)-2-hydroxy-4-methoxyphenyl)-6-(hydroxymethyl)tetrahydro-2H-pyran-3,4-diol] | – | – | – | – | inhibition at 0.3 µM (human SGLT1; compound at 0.3 μM): 46%; inhibition at 0.3 µM (human SGLT2): 54%
Cc1cc(O)c([C@@H]2O[C@H](CO)C[C@H](O)[C@H]2O)cc1C(C)(C)c1cc2ccccc2s1 [Cpd 15, (2S,3R,4S,6S)-2-(5-(2-(benzo[b]thiophen-2-yl)propan-2-yl)-2-hydroxy-4-methylphenyl)-6-(hydroxymethyl)tetrahydro-2H-pyran-3,4-diol] | – | – | 52 | – | inhibition at 0.3 µM (human SGLT2): 25%

Second part, led by results:

IC50 (human SGLT1) [nM] | IC50 (human SGLT2) [nM] | inhibition at 3 µM (human SGLT1) [%] | inhibition at 3 µM (human SGLT2) [%] | Compound | other results
117 | 16 | – | – | Cc1cc(O)c([C@@H]2O[C@H](CO)C[C@H](O)[C@H]2O)cc1Cc1cc2ccccc2s1 [Cpd 1, (2S,3R,4S,6S)-2-(5-(benzo[b]thiophen-2-ylmethyl)-2-hydroxy-4-methylphenyl)-6-(hydroxymethyl)tetrahydro-2H-pyran-3,4-diol] | –
115 | 22 | – | – | OC[C@@H]1C[C@H](O)[C@@H](O)[C@H](c2cc(Cc3cc4ccccc4s3)c(Cl)cc2O)O1 [Cpd 3, (2S,3R,4S,6S)-2-(5-(benzo[b]thiophen-2-ylmethyl)-4-chloro-2-hydroxyphenyl)-6-(hydroxymethyl)tetrahydro-2H-pyran-3,4-diol] | –
893 | 128 | – | – | OC[C@@H]1C[C@H](O)[C@@H](O)[C@H](c2cc(Cc3cc4ccccc4s3)c(F)cc2O)O1 [Cpd 4, (2S,3R,4S,6S)-2-(5-(benzo[b]thiophen-2-ylmethyl)-4-fluoro-2-hydroxyphenyl)-6-(hydroxymethyl)-tetrahydro-2H-pyran-3,4-diol] | –
– | 61 | 95 | – | CCc1cc(O)c([C@@H]2O[C@H](CO)C[C@H](O)[C@H]2O)cc1Cc1cc2ccccc2s1 [Cpd 11, (2S,3R,4S,6S)-2-(5-(benzo[b]thiophen-2-ylmethyl)-4-ethyl-2-hydroxyphenyl)-6-(hydroxymethyl)tetrahydro-2H-pyran-3,4-diol] | –
– | – | 57 | – | N#Cc1cc(O)c([C@@H]2O[C@H](CO)C[C@H](O)[C@H]2O)cc1Cc1cc2ccccc2s1 [Cpd 13, 2-(benzo[b]thiophen-2-ylmethyl)-4-((2S,3R,4S,6S)-3,4-dihydroxy-6-(hydroxymethyl)tetrahydro-2H-pyran-2-yl)-5-hydroxybenzonitrile] | inhibition at 0.3 µM (human SGLT2): 73%
240 | – | – | – | OC[C@@H]1C[C@H](O)[C@@H](O)[C@H](c2cc(Cc3cc4ccccc4s3)c(C(F)(F)F)cc2O)O1 [Cpd 16, (2S,3R,4S,6S)-2-(5-(benzo[b]thiophen-2-ylmethyl)-2-hydroxy-4-(trifluoromethyl)phenyl)-6-(hydroxymethyl)tetrahydro-2H-pyran-3,4-diol] | inhibition at 0.1 µM (human SGLT2; compound at 0.1 μM): 77%
